{"source": "patent US20240025886A1", "about": "“INHIBITORS OF IGF2BP1-RNA BINDING” (YISSUM RESEARCH DEVELOPMENT COMPANY OF THE HEBREW …, priority 2020, published 2024)", "key": {"[1]": {"target": "Igf2bp1-cMyc RNA interaction (Homo sapiens, UniProt Q9NZI8)", "sequence (Q9NZI8 whole entry)": "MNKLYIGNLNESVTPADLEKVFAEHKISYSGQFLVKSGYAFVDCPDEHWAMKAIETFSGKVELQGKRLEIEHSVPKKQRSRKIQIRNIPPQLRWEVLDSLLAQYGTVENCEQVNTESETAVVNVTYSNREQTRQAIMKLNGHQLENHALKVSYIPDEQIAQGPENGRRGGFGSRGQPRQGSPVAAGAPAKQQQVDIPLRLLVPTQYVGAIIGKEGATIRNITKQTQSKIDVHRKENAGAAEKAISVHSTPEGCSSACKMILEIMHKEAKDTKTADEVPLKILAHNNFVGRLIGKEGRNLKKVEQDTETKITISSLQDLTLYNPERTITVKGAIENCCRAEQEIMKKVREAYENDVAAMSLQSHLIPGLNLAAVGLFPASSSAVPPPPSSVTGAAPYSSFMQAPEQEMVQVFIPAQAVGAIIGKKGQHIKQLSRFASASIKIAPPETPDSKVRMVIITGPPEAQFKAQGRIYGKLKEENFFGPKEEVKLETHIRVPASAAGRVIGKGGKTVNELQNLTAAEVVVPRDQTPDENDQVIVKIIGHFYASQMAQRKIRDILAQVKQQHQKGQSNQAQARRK", "conditions": "fluorescence polarization; cited from earlier work"}, "H1299 cells": {"tested_on": "H1299 cells", "test": "Wound healing (cell migration) assay, H1299 cells", "format": "cell-based, human", "conditions": "H1299 cells; 10 μM compound 15 vs 20 μM 7773 in FIGS. 20A-B", "experimental": "Cells were seeded in 96 IncuCyte® ImageLock plates (20×10^3 cells per well) for 24 hours, to a near confluency of 95%, before the addition of increasing concentrations of compound. After a further 24 hours, wells were scratched using the IncuCyte® 96-well WoundMaker Tool, and the cells cultured for an additional 48 hours using the IncuCyte® S3 Live-Cell Analysis System (Essen BioScience). The plate was imaged at increments of 120 minutes for a period of 48 hours, and then analyzed for relative wound healing."}, "[2]": {"test": "Cell proliferation, compound 15 (cell line not stated)", "format": "cell-based"}, "Igf2bp1": {"target": "T1, Igf2bp1 (Homo sapiens, UniProt Q9NZI8)", "T1 construct": "Recombinant full-length Igf2bp1 protein; made in house; host or cells: E. coli BL21(DE3)", "T1 sequence (Q9NZI8 whole entry)": "as above", "test": "Microscale thermophoresis (MST) binding to full-length Igf2bp1", "conditions": "MST", "experimental": "Recombinant full-length Igf2bp1 protein was labelled with RED-tris-NTA dye using a Monolith NT His-Tag Labelling Kit (NanoTemper) while RRM12, KH12 and KH34 di-domain peptides were labelled using the Protein Labeling Kit RED NHS 2nd generation (NanoTemper). Labelled proteins were spun at 15,000 g for 5 min to eliminate aggregates. All samples were 2× labelled protein mix of Igf2bp1 (200 nM) in PBST and were combined (1:1) with serial dilutions of compound or Kras6 RNA in binding buffer (10 mMTris pH=7.5, 100 mM NaCl, 0.1 mM EDTA, 0.06% IPEGAL, 0.02 μg/μL tRNA, 2 mM DTT, 0.1 μg/μL heparin) in final volume of 20 μL, room temperature for 15 min. Samples were then loaded into standard capillaries (NanoTemper) and read in the Monolith NT.115 scanner (NanoTemper) using the red filter with reading conditions of 95% LED power and 40% MST power, 5 sec fluorescence before, 30 sec MST on, 5 sec fluorescence after and 25 sec delay between samples. Results were analyzed using the MO Control software (NanoTemper) for curve fitting to KD."}, "[3]": {"target": "T2, Igf2bp1 binding to Kras 6 RNA (Homo sapiens, UniProt Q9NZI8)", "T2 construct": "Recombinant full-length Igf2bp1 protein; made in house; host or cells: E. coli BL21(DE3)", "T2 sequence (Q9NZI8 whole entry)": "as above", "test": "EMSA, Igf2bp1 with fluorescent Kras 6 RNA", "parameters": "dose or concentration left out as unconfirmed", "experimental": "Recombinant Igf2bp1 protein was serially diluted (1:1) starting at an initial concentration of 10,000 nM in 0.75 μg heparin, in a total volume of 13 μL. Fluorescently labelled Kras 6 RNA (750 nM) diluted in reaction buffer (10 mM Tris pH 7.5, 100 mM NaCl, 0.1 mM EDTA, 1 mg/mL tRNA, 0.25% IGEPAL (Sigma), 0.5 mM DTT) was heated to 65° C. for 5 minutes, kept on ice for 1 minute and RNasin (200 U/mL) (ThermoScientific, RiboLock RNase inhibitor) was then added. […] RNA was added to each well protein sample, and after a 30 min incubation at room temperature in the dark, loading dye (3 μL) (30% glycerol, 0.01% bromocresol green) was added to each mixture. For compound inhibition experiments, compounds or DMSO were incubated for 4 hours at 37° C. with the protein prior to adding the RNA. Samples were electrophoresed on native TBE polyacrylamide gels (6% acrylamide/bis-acrylamide 37.5:1, 0.5×TBE) that had been pre-run for 30 min. Gels were run at 120V in 0.5×TBE, at 4° C. in the dark. They were then carefully washed and scanned using a Typhoon FLA9500 imager using Alexa 488 laser and LPB1/2 filter. Igf2bp1-RNA complex formation was quantified using the ImageJ software. Prism6 software was used for curve fitting and KD calculations."}, "[4]": {"target": "T2, Igf2bp1 binding to Kras 6 RNA", "test": "Fluorescence polarization (FP) assay of Igf2bp1 binding to fluorescent Kras 6 RNA", "conditions": "FP dose response; read-out: IC50 for inhibition of Igf2bp1 binding to Kras 6 RNA", "experimental": "For the small molecule screen, compounds were obtained from the collection maintained at the Grand Israel National Center for Personalized Medicine, consisting of molecules purchased from commercial vendors. Labelled RNA (10 nM) was incubated with recombinant Igf2bp1 protein (400 nM) in FAM-RNA buffer (10 mM Tris pH 8.0, 75 mM KCl, 0.5 mM EDTA, 1 mM DTT, 0.0188 U/μL RNAsin, 0.0005 μg/mL heparin, 0.0001 μg/μL tRNA, 0.01% Triton X-100, 3 mM MgCl2, 0.05% IGEPAL) at room temperature for 15 min. […] of this reaction mix was aliquoted with GNF WDII (USA) into wells of 1536 well plates, with a final concentration of […] compound or DMSO. The plates were spun down and read in a BMG Pherastar FS (Germany) plate reader plate reader, in FP mode with a 485/520/520 polarization filter, calibrated to 35 mP for free fluorescein with similar total intensity as experimental samples. […]\nTo determine the quality of the inventors screening assay, the Z′ factor for each plate was calculated with a Z′ factor greater than 0.5 indicating a robust assay suitable for high throughput screening. Compounds that altered the overall fluorescence intensity compared to controls were considered auto florescence and excluded from further analysis. […] Any small molecule that causes a change of more than three standard deviations from the mean is determined appropriate for further investigation."}, "La protein": {"target": "T3, La protein (UniProt P05455 P05455:1-408)", "T3 sequence": "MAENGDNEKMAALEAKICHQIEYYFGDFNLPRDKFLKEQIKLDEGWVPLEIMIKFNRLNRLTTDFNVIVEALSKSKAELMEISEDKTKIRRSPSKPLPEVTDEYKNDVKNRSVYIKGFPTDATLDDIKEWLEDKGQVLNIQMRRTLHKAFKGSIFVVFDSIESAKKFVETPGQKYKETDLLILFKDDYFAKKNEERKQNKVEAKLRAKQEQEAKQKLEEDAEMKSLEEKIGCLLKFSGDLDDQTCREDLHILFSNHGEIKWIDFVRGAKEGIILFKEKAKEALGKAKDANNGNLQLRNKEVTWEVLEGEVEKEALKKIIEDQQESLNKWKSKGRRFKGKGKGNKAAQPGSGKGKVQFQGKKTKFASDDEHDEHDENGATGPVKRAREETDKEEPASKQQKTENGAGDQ", "test": "EMSA; not affected by 7773", "conditions": "label: 5'-6FAM"}}, "note": "Where “and” joins values, the source holds several entries; their conditions need not be identical. Equal values may be shown once.", "data": [{"molecule": "NC(=O)c1ccccc1N=Cc1ccc(Br)s1", "note": "[BTYNB]", "values": [{"measurement": "Igf2bp1-cMyc RNA interaction in vitro", "setting": "[1]", "value": "inhibited"}]}, {"molecule": "O=C(c1ccc(Cn2c(CO)cc3ccccc32)cc1)N1CCN(c2ccc3c(c2)OCO3)CC1", "note": "[Compound 15]", "values": [{"measurement": "Efficiency at inhibiting wound healing compared to Compound 7773", "setting": "H1299 cells", "value": "over 10 fold"}, {"measurement": "Cell proliferation", "setting": "[2]", "value": "inhibition of cell proliferation"}]}, {"molecule": "O=C(c1cccc(-n2cnnn2)c1)N1CCCC(Nc2ccc3c(c2)OCO3)C1", "note": "(stereo not shown) [Compound 393, reference compound]", "values": [{"measurement": "Affinity for Igf2bp1 relative to 7773", "setting": "Igf2bp1", "value": "approximately seven times lower affinity"}, {"measurement": "Inhibition of Igf2bp1 binding to Kras 6 RNA (gel shift)", "setting": "[3]", "value": "lower, but observable, inhibition of RNA binding"}, {"measurement": "IC50", "setting": "[4]", "value": "~90 µM and > 100 µM"}]}, {"molecule": "CCCGUUGCUUUUCCUCUGGGAAGGAUGGCGCACGCUGGG (ssRNA)", "note": "[Bcl2 RNA oligo]", "values": [{"measurement": "binding result", "setting": "La protein", "value": "binds"}]}]}
